Key:
[1] = molecular target: T1, Renilla luciferase (Renilla reniformis, UniProt P27652); test: Non-detergent compound screen, Renilla luciferase (Example 6); assay type: biochemical; settings: for remaining activity at 23 µM / remaining activity at 153 µM / remaining activity at 1000 µM / remaining activity at 10 µM / remaining activity at 100 µM: 0.5% Tergitol NP-9, 0.03% BDDABr, read-out: Retained Renilla Luciferase Value (%)
T1 sequence (P27652 1-311): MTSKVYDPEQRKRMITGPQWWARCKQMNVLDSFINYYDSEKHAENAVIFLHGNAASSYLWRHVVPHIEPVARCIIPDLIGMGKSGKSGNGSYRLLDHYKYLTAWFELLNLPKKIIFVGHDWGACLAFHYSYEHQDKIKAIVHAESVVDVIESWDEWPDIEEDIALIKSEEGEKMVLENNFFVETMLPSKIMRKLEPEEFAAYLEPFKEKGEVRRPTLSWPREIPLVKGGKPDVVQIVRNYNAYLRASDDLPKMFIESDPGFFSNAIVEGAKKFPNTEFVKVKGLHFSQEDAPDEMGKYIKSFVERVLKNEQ
Protocol: (§1) Each compound was diluted into 200 mM MOPS pH 6.7, 4 μM MgSO4, 1 mM CDTA, 0.5% Tergitol NP-9, 0.05% Mazu-DF-204, 0.03% BDDABr, 30 mM thiourea, 1 mM bis-(2-mercaptoethylsulfone) (BMS), 4 μM CoA, and 1 μM 5-fluoroluciferin. Just prior to the luciferase reaction, 0.1% Prionex® (Pentapharm) and 2.9 μM coelenterazine-h (Promega) were added to each solution.
(§2) The firefly luciferase and Renilla luciferase enzymes were diluted as described in Examples 3 and 5. The luciferase reactions were initiated by adding 50 μl of the firefly luciferase and Renilla luciferase enzyme solution to 50 μl of reagent solution. The reactions were performed as described above. The retained Renilla and firefly luciferase-mediated luminescence and selectivity values for each inhibitor tested are listed in Table 6.

[2] = molecular target: firefly luciferase (Photinus pyralis, UniProt P08659); test: Non-detergent compound screen, firefly luciferase (Example 6); assay type: biochemical; settings: 0.5% Tergitol NP-9, 0.03% BDDABr, read-out: Retained Firefly Luciferase Value (%); for remaining activity at 23 µM: inhibitor 23 μM; for remaining activity at 153 µM: inhibitor 153 μM; for remaining activity at 1000 µM: inhibitor 1000 μM; for remaining activity at 10 µM: inhibitor 10 μM; for remaining activity at 100 µM: inhibitor 100 μM
Protocol: as §1, §2

firefly luciferase, sequence (P08659 whole entry): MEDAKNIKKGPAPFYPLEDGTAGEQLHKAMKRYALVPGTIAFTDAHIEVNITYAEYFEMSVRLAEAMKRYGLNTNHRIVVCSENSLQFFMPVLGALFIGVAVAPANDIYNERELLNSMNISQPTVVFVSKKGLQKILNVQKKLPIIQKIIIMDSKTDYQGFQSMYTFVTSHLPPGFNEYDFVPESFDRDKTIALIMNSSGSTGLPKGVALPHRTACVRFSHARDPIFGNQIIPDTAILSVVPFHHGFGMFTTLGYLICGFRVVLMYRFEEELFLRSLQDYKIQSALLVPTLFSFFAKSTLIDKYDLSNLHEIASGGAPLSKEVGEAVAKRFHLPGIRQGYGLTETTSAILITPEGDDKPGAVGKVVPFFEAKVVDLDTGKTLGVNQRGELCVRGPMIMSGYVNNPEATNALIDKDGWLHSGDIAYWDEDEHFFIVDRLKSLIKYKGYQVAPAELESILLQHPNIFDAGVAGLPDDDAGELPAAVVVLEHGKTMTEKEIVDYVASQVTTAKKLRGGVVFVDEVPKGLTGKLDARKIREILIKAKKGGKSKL

Compound	inhibitor of Renilla luciferase, grade in words [1]	Selectivity Value ([1]; inhibitor 23 μM)	remaining activity at 23 µM ([1]; inhibitor 23 μM)	Selectivity Value ([1]; inhibitor 153 μM)	remaining activity at 153 µM ([1]; inhibitor 153 μM)	Selectivity Value ([1]; inhibitor 1000 μM)	remaining activity at 1000 µM ([1]; inhibitor 1000 μM)	remaining activity at 23 µM [2]	remaining activity at 153 µM [2]	remaining activity at 1000 µM [2]	Selectivity Value ([1]; inhibitor 10 μM)	remaining activity at 10 µM ([1]; inhibitor 10 μM)	Selectivity Value ([1]; inhibitor 100 μM)	remaining activity at 100 µM ([1]; inhibitor 100 μM)	remaining activity at 10 µM [2]	remaining activity at 100 µM [2]
CCCCCCNC(=O)/C=C/c1ccc2[nH]cc(CCN(C)C)c2c1 [Compound 3050, (E)-3-(3-(2-(dimethylamino)ethyl)-1H-indol-5-yl)-N-hexylacrylamide]	suitable inhibitors of Renilla luciferase	1.1	93%	1.0	99%	1.9	55%	102%	102%	102%						
COc1ccc(CNC(=O)COc2ccc3[nH]cc(CCN(C)C)c3c2)cc1 [Compound 3031, 2-(3-(2-(dimethylamino)ethyl)-1H-indol-5-yloxy)-N-(4-methoxybenzyl)acetamide]	suitable inhibitors of Renilla luciferase	1	96%	0.99	90%	1.4	66.5%	96%	89%	89%						
CN(C)CCc1c[nH]c2ccc(/C=C/C(=O)N3CCOCC3)cc12 [Compound 3064, (E)-3-(3-(2-(dimethylamino)ethyl)-1H-indol-5-yl)-1-morpholinoprop-2-en-1-one]	excellent inhibitors of Renilla luciferase					11.4	9%			103%	1.3	81%	2.9	35%	102%	101%
COc1ccc(CCNC(=O)/C=C/c2ccc3[nH]cc(CCN(C)C)c3c2)cc1 [Compound 3062, (E)-3-(3-(2-(dimethylamino)ethyl)-1H-indol-5-yl)-N-(4-methoxyphenethyl)acrylamide]	excellent inhibitors of Renilla luciferase					19.4	5.1%			99%	1.4	74%	3.3	30%	100%	98%
CN(C)CCc1c[nH]c2ccc(/C=C/C(=O)NCc3ccc([N+](=O)[O-])cc3)cc12 [Compound 3063, (E)-3-(3-(2-(dimethylamino)ethyl)-1H-indol-5-yl)-N-(4-nitrobenzyl)acrylamide]	excellent inhibitors of Renilla luciferase					33	3.1%			102%	1.6	63%	5.4	19%	102%	102%
COc1ccc(CNC(=O)/C=C/c2ccc3[nH]cc(CN(C)C)c3c2)cc1 [Compound 3067, (E)-3-(3-((dimethylamino)methyl)-1H-indol-5-yl)-N-(4-methoxybenzyl)acrylamide]	excellent inhibitors of Renilla luciferase					14.3	7%			100%	1.3	79%	2.9	34%	100%	99%
COc1ccc(CNC(=O)/C=C/c2ccc3ncccc3c2)cc1 [Compound 3046, (E)-N-(4-methoxybenzyl)-3-(quinolin-6-yl)acrylamide]	inhibitors of Renilla luciferase					3.4	24.5%			83%	1.0	96%	1.3	78%	100%	99%
